From ChEMBL document CHEMBL4840375, “Ring A/B-Modified 17β-Hydroxywithanolide Analogues as Antiproliferative Agents for Prostate Cancer and Potentiators of Immunotherapy for Renal Carcinoma and Melanoma” (J Nat Prod, 2021)

Key:
M14 [1] = assay: Antiproliferative activity against human M14 cells assessed as inhibition of cell proliferation incubated for 72 hrs by MTT assay; assay type: functional, cell-based; conditions: M14, 72 h
SK-MEL-28 [2] = assay: Antiproliferative activity against human SK-MEL-28 cells assessed as inhibition of cell proliferation incubated for 72 hrs by MTT assay; assay type: functional, cell-based; conditions: SK-MEL-28, 72 h
HFF = assay: Cytotoxicity against human HFF cells assessed as reduction in cell viability incubated for 72 hrs by MTT assay; assay type: cell-based
SK-MEL-28 [3] = assay: Potentiation of poly I:C-induced antiproliferative activity against human SK-MEL-28 cells assessed as reduction in cell numbers by measuring IC50 pretreated with compound for 2 hrs followed by poly I:C addition and measured after 48 hrs by MTT assay; assay type: functional, cell-based; also: test concentration or dose not given here
CWR22R = assay: Antiproliferative activity against human 22Rv1 cells assessed as inhibition of cell proliferation incubated for 72 hrs by MTT assay; assay type: functional, cell-based; conditions: 22Rv1, 72 h
SK-MEL-28 [4] = assay: Antiproliferative activity against human SK-MEL-28 cells assessed as inhibition of cell proliferation incubated for 48 hrs by MTT assay; assay type: functional, cell-based; conditions: SK-MEL-28, 48 h
LNCaP = assay: Antiproliferative activity against human LNCaP cells assessed as inhibition of cell proliferation incubated for 72 hrs by MTT assay; assay type: functional, cell-based
M14 [5] = assay: Antiproliferative activity against human M14 cells assessed as inhibition of cell proliferation incubated for 48 hrs by MTT assay; assay type: functional, cell-based; conditions: M14, 48 h
M14 [6] = assay: Potentiation of poly I:C-induced antiproliferative activity against human M14 cells assessed as reduction in cell numbers by measuring IC50 pretreated with compound for 2 hrs followed by poly I:C addition and measured after 48 hrs by MTT assay; assay type: functional, cell-based; also: test concentration or dose not given here
ACHN [7] = assay: Antiproliferative activity against human ACHN cells assessed as inhibition of cell proliferation incubated for 72 hrs by MTT assay; assay type: functional, cell-based
ACHN [8] = assay: Antiproliferative activity against human ACHN cells assessed as inhibition of cell proliferation incubated for 24 hrs by MTT assay; assay type: functional, cell-based
ACHN [9] = assay: Potentiation of TRAIL-induced antiproliferative activity against human ACHN cells assessed as reduction in cell numbers by measuring IC50 pretreated with compound for 2 hrs followed by TRAIL addition and measured after 24 hrs by MTT assay; assay type: functional, cell-based; also: test concentration or dose not given here

CC(=O)OC[C@]12CC[C@H]3[C@@H](CC(=O)C4=CC=CC(=O)[C@@]43C)[C@]1(O)CC[C@@]2(O)[C@@](C)(O)C1CC(C)=C(C)C(=O)O1 (stereo partly drawn)
IC50 (M14 [1]): 2.34 µM
IC50 (SK-MEL-28 [2]): > 5 µM
IC50 (HFF): > 5 µM
IC50 (SK-MEL-28 [3]): > 5 µM
IC50 (CWR22R): 0.5 µM
IC50 (SK-MEL-28 [4]): > 5 µM
IC50 (LNCaP): > 5 µM
IC50 (M14 [5]): > 5 µM
IC50 (M14 [6]): > 5 µM
IC50 (ACHN [7]): > 5 µM

CC(=O)OC[C@]12CC[C@H]3[C@@H](CC=C4CCCC(=O)[C@@]43C)[C@@]1(O)CC[C@@]2(O)[C@@](C)(O)C1CC(C)=C(C)C(=O)O1 (stereo partly drawn)
IC50 (M14 [1]): > 5 µM
IC50 (SK-MEL-28 [2]): > 5 µM
IC50 (HFF): > 5 µM
IC50 (CWR22R): > 5 µM
IC50 (LNCaP): > 5 µM
IC50 (ACHN [7]): > 5 µM

CC(=O)OC[C@]12CC[C@H]3[C@@H](CC=C4[C@@H](OC(C)=O)C=CC(=O)[C@@]43C)[C@]1(O)CC[C@@]2(O)[C@@](C)(O)C1CC(C)=C(C)C(=O)O1 (stereo partly drawn)
IC50 (M14 [1]): 1.43 µM
IC50 (HFF): 2.69 µM
IC50 (CWR22R): 0.13 µM
IC50 (LNCaP): 0.68 µM

CC(=O)OC[C@]12CC[C@H]3[C@@H](C[C@H]4O[C@]45[C@H](O)C=CC(=O)[C@]35C)[C@]1(O)CC[C@@]2(O)[C@@](C)(O)C1CC(C)=C(C)C(=O)O1 (stereo partly drawn)
IC50 (M14 [1]): > 5 µM
IC50 (SK-MEL-28 [2]): 3.03 µM
IC50 (HFF): > 5 µM
IC50 (SK-MEL-28 [3]): 4.72 µM
IC50 (CWR22R): 0.33 µM
IC50 (SK-MEL-28 [4]): > 5 µM
IC50 (LNCaP): 1.74 µM
IC50 (ACHN [8]): > 5 µM
IC50 (M14 [5]): > 5 µM
IC50 (M14 [6]): > 5 µM
IC50 (ACHN [9]): 0.27 µM
IC50 (ACHN [7]): 3.93 µM

CC(=O)OC[C@]12CC[C@H]3[C@@H](C[C@@H](O)C4=CC=CC(=O)[C@@]43C)[C@]1(O)CC[C@@]2(O)[C@@](C)(O)C1CC(C)=C(C)C(=O)O1 (stereo partly drawn)
IC50 (M14 [1]): > 5 µM
IC50 (SK-MEL-28 [2]): > 5 µM
IC50 (HFF): > 5 µM
IC50 (CWR22R): 1.89 µM
IC50 (LNCaP): 2.96 µM
IC50 (ACHN [7]): > 5 µM

CC(=O)OC[C@]12CC[C@H]3[C@@H](C[C@H](O)C4=CC=CC(=O)[C@@]43C)[C@]1(O)CC[C@@]2(O)[C@@](C)(O)C1CC(C)=C(C)C(=O)O1 (stereo partly drawn)
IC50 (M14 [1]): > 5 µM
IC50 (SK-MEL-28 [2]): > 5 µM
IC50 (HFF): > 5 µM
IC50 (CWR22R): > 5 µM
IC50 (LNCaP): > 5 µM
IC50 (ACHN [7]): > 5 µM

CC(=O)OC[C@]12CC[C@H]3[C@@H](C[C@H]4O[C@]45[C@@H](O)C=CC(=O)[C@]35C)[C@]1(O)CC[C@@]2(O)[C@@](C)(O)C1CC(C)=C(C)C(=O)O1 (stereo partly drawn)
IC50 (M14 [1]): > 5 µM
IC50 (SK-MEL-28 [2]): > 5 µM
IC50 (HFF): > 5 µM
IC50 (SK-MEL-28 [3]): 4.61 µM
IC50 (CWR22R): 1.53 µM
IC50 (SK-MEL-28 [4]): > 5 µM
IC50 (LNCaP): 3.52 µM
IC50 (M14 [5]): > 5 µM
IC50 (M14 [6]): > 5 µM
IC50 (ACHN [7]): > 5 µM

CC(=O)OC[C@]12CC[C@H]3[C@@H](CC=C4CC=CC(=O)[C@@]43C)[C@]1(O)CC[C@@]2(O)[C@@](C)(O)C1CC(C)=C(C)C(=O)O1 (stereo partly drawn)
IC50 (M14 [1]): > 5 µM
IC50 (SK-MEL-28 [2]): > 5 µM
IC50 (HFF): > 5 µM
IC50 (SK-MEL-28 [3]): 1.77 µM
IC50 (CWR22R): 0.13 µM
IC50 (SK-MEL-28 [4]): > 5 µM
IC50 (ACHN [8]): > 5 µM
IC50 (M14 [5]): > 5 µM
IC50 (M14 [6]): 2.81 µM
IC50 (ACHN [9]): 0.56 µM
IC50 (ACHN [7]): 3.09 µM

CC(=O)OC[C@]12CC[C@H]3[C@@H](C[C@H]4O[C@]45C(=O)C=CC(=O)[C@]35C)[C@]1(O)CC[C@@]2(O)[C@@](C)(O)C1CC(C)=C(C)C(=O)O1 (stereo partly drawn)
IC50 (M14 [1]): > 5 µM
IC50 (SK-MEL-28 [2]): > 5 µM
IC50 (HFF): > 5 µM
IC50 (CWR22R): > 5 µM
IC50 (LNCaP): > 5 µM
IC50 (ACHN [7]): > 5 µM

CC(=O)OC[C@]12CC[C@H]3[C@@H](C[C@H]4O[C@]45[C@@H](OC(C)=O)C=CC(=O)[C@]35C)[C@]1(O)CC[C@@]2(O)[C@@](C)(O)C1CC(C)=C(C)C(=O)O1 (stereo partly drawn)
IC50 (M14 [1]): > 5 µM
IC50 (SK-MEL-28 [2]): 1.55 µM
IC50 (HFF): 1.52 µM
IC50 (SK-MEL-28 [3]): 1.38 µM
IC50 (CWR22R): 0.25 µM
IC50 (SK-MEL-28 [4]): 2.73 µM
IC50 (LNCaP): 0.92 µM
IC50 (ACHN [8]): > 5 µM
IC50 (M14 [5]): > 5 µM
IC50 (M14 [6]): 1.67 µM
IC50 (ACHN [9]): 0.25 µM
IC50 (ACHN [7]): 1.27 µM

CC(=O)OC[C@]12CC[C@H]3[C@@H](CC=C4C=CCC(=O)[C@@]43C)[C@]1(O)CC[C@@]2(O)[C@@](C)(O)C1CC(C)=C(C)C(=O)O1 (stereo partly drawn)
IC50 (M14 [1]): > 5 µM
IC50 (SK-MEL-28 [2]): > 5 µM
IC50 (HFF): > 5 µM
IC50 (SK-MEL-28 [3]): 4.49 µM
IC50 (CWR22R): 0.97 µM
IC50 (SK-MEL-28 [4]): > 5 µM
IC50 (M14 [5]): > 5 µM
IC50 (M14 [6]): > 5 µM
IC50 (ACHN [7]): > 5 µM

CC(=O)OC[C@]12CC[C@H]3[C@@H](C[C@H](OC(C)=O)[C@]45O[C@H]4C=CC(=O)[C@]35C)[C@]1(O)CC[C@@]2(O)[C@@](C)(O)C1CC(C)=C(C)C(=O)O1 (stereo partly drawn)
IC50 (M14 [1]): > 5 µM
IC50 (SK-MEL-28 [2]): > 5 µM
IC50 (HFF): > 5 µM
IC50 (CWR22R): 3.08 µM
IC50 (LNCaP): > 5 µM
IC50 (ACHN [7]): > 5 µM
